In patent publication US20240109842A1, “ACRYLAMIDE COMPOUNDS” (OTSUKA PHARMACEUTICAL CO., LTD., priority 2019, published 2024):

Experiments:
[1] = tested on: immortalized megakaryocyte cell line; test: Test Example 2: platelet production, shake culturing, with various aryl hydrocarbon receptor antagonists
[2] = tested on: immortalized megakaryocyte cell line; test: Test Example 1: platelet production, shake culturing; assay type: cell-based; conditions: compound 10 μM added at Day 3; for fold induction at 10 µM: Platelet, 144 h, DMSO added at cell seeding (no AhR antagonist), platelets (CD41, CD42a, CD42b-positive) counted after 6 days, read-out: Amount of platelet production (vs. Control); for Amount of platelet production (vs. Control): aryl hydrocarbon receptor antagonist Compound A5 0.1 μM added at cell seeding, counted after 6 days
Experimental: The immortalized megakaryocyte cell line obtained according to the method described in WO 2016/204256 was washed twice with D-PBS(−) and then cultured in medium not containing doxycycline to terminate forced expression (cultured under conditions where gene expression is OFF). Shake culturing at 100 rpm was performed in the following medium after the cells were seeded in a 125-mL polycarbonate Erlenmeyer flask (Corning #431143) at 25 mL/flask and a seeding density of 1×10^5 cells/mL. Culturing conditions were 37° C. and 5% CO2. The medium was obtained by adding the following components to IMDM serving as the basal medium (concentrations indicate final concentrations). • FBS 15% • L-Glutamine 2 mM • ITS 100-fold dilution • MTG 450 μM • Ascorbic acid 50 μg/mL • SCF 50 ng/mL • TA-316 0.1 μg/mL • ADAM inhibitor 15 μM • ROCK inhibitor 0.5 μM […] After culturing for 6 days in total, the number of platelets was measured. The measurement method was as follows. The same operation was performed for control. At 6 days after initiation of the culturing under conditions where gene expression was OFF, a part of the culture supernatant was collected, and suspended with the following antibody and Flow-Count Fluorospheres (Beckman Coulter #7547053) to perform staining. • APC-labeled anti-CD41 antibody (BioLegend #303710) • eFluor 450-labeled anti-CD42a antibody (eBioscience #48-0428-42) • PE-labeled anti-CD42b antibody (BioLegend #303906) At 30 minutes after staining, number of platelets (CD41, CD42a and CD42b-positive cells) was counted by using FACSVerse (manufactured by BD Japan) with Flow-Count Fluorospheres. The number of platelets was given as a percentage of the control.

[3] = comparative examples: only an aryl hydrocarbon receptor antagonist, no acrylamide compound, A1 0.75 μM, A2 0.1 μM, A3 10 μM, A4 1 μM, A5 to A8 0.1 μM
[4] = with aryl hydrocarbon receptor antagonist Compound A2 0.1 μM, otherwise as Test Example 1

SMILES: CC1(C)COc2nc3c(NCCc4ccc(O)c(-c5ccccc5F)c4)nc(-c4cncc(F)c4)nc3n21 [Compound A6, 2-(2-fluorophenyl)-4-[2-[[2-(5-fluoropyridin-3-yl)-8,8-dimethyl-7H-purino[8,9-b][1,3]oxazol-4-yl]amino]ethyl]phenol, reference compound]
- Amount of platelet production (vs. Control) [1, 3]: + (the amount of platelets production increased by not less than 1.5 times and less than 6.5 times)

SMILES: CC1(C)COc2nc3c(NCCc4ccc(O)c(-c5cncc(F)c5)c4)nc(-c4cncc(F)c4)nc3n21 [Compound A7, 2-(5-fluoropyridin-3-yl)-4-[2-[[2-(5-fluoropyridin-3-yl)-8,8-dimethyl-7H-purino[8,9-b][1,3]oxazol-4-yl]amino]ethyl]phenol, reference compound]
- Amount of platelet production (vs. Control) [1, 3]: + (the amount of platelets production increased by not less than 1.5 times and less than 6.5 times)

SMILES: CC1(C)CSc2nc3c(NCCc4ccc(O)c(-c5ccccc5F)c4)nc(-c4cncc(F)c4)nc3n21 [Compound A8, 2-(2-fluorophenyl)-4-[2-[[2-(5-fluoropyridin-3-yl)-8,8-dimethyl-7H-purino[8,9-b][1,3]thiazol-4-yl]amino]ethyl]phenol, reference compound]
- fold induction at 0.1 µM ([1]; Platelet, 144 h, read-out: Amount of platelet production (vs. Control)): 1.5 to 6.5

SMILES: CCOc1ccccc1CCNC(=O)/C=C/c1c[nH]c2c(CC)cccc12 [Example 57]
- fold induction at 10 µM [2]: 1.5 to 6.5
- Amount of platelet production (vs. Control) [2]: ++ (not less than 6.5 times)
- Amount of platelet production (vs. Control) [1, 4]: ++ (not less than 6.5 times)

SMILES: CCOc1ccc(OC)cc1CCNC(=O)/C=C/c1c[nH]c2c(OC)cccc12 [Example 59]
- fold induction at 10 µM [2]: 1.5 to 6.5
- Amount of platelet production (vs. Control) [2]: ++ (not less than 6.5 times)
- Amount of platelet production (vs. Control) [1, 4]: ++ (not less than 6.5 times)

SMILES: CCOc1ccccc1CCNC(=O)/C=C/c1c[nH]c2c(C)cccc12 [Example 60]
- fold induction at 10 µM [2]: 1.5 to 6.5
- Amount of platelet production (vs. Control) [2]: ++ (not less than 6.5 times)
- Amount of platelet production (vs. Control) [1, 4]: ++ (not less than 6.5 times)

SMILES: CCOc1ccccc1CCNC(=O)/C=C/c1c[nH]c2c(OC)cccc12 [Example 61]
- fold induction at 10 µM [2]: 1.5 to 6.5
- Amount of platelet production (vs. Control) [2]: ++ (not less than 6.5 times)
- Amount of platelet production (vs. Control) ([1]; with aryl hydrocarbon receptor antagonist Compound A1 0.75 μM, otherwise as Test Example 1): ++ (not less than 6.5 times)
- Amount of platelet production (vs. Control) [1, 4]: ++ (not less than 6.5 times)
- Amount of platelet production (vs. Control) ([1]; with aryl hydrocarbon receptor antagonist Compound A3 10 μM, otherwise as Test Example 1): ++ (not less than 6.5 times)
- Amount of platelet production (vs. Control) ([1]; with aryl hydrocarbon receptor antagonist Compound A4 1 μM, otherwise as Test Example 1): ++ (not less than 6.5 times)
- Amount of platelet production (vs. Control) ([1]; with aryl hydrocarbon receptor antagonist Compound A7 0.1 μM, otherwise as Test Example 1): ++ (not less than 6.5 times)
- Amount of platelet production (vs. Control) ([1]; with aryl hydrocarbon receptor antagonist Compound A8 0.1 μM, otherwise as Test Example 1): ++ (not less than 6.5 times)
